This is an account of results in article PMC5618632, “In Vitro Glucuronidation of Wushanicaritin by Liver Microsomes, Intestine Microsomes and Expressed Human UDP-Glucuronosyltransferase Enzymes” (International Journal of Molecular Sciences, 2017).

Data set [1] concerns the target T1, UGT2B7 (Homo sapiens, UniProt P16662).
T1 sequence (P16662 24-529): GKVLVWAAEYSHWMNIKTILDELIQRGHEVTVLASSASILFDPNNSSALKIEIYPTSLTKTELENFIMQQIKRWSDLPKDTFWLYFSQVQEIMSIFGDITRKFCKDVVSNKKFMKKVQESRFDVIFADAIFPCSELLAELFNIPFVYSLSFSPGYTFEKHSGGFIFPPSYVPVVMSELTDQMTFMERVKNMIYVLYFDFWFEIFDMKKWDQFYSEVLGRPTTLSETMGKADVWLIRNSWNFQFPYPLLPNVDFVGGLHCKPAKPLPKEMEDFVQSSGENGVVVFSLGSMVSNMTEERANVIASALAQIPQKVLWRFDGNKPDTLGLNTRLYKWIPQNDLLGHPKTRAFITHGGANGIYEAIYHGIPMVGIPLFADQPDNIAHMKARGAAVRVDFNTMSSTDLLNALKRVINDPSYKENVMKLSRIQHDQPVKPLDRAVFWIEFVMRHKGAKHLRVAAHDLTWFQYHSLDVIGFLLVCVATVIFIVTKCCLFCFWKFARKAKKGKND
As to the kind of experiment: Glucuronidation by expressed UGT2B7. On the procedure: (§1) The reaction was terminated by adding ice-cold acetonitrile. […] All experiments were performed in triplicate.
(§2) The gradient elution program was the same as the UPLC condition of the structural identification of wushanicaritin glucuronides above. The detection wavelength was set at 270 nm, and the injection volume was 8 µL.
(§3) The parameter were as follow. V is the formation rate of the product. Vmax is the maximal velocity. […] Ksi is the substrate inhibition constant. […] (1) V=Vmax ×[S]/Km+[S] (2) V=Vmax ×[S]/Km + [S](1+[S]/Ksi)
(§4) The contribution of individual expressed UGT enzymes to wushanicaritin glucuronidation in HLM was evaluated by the relative activity factor (RAF) approach as described in previous studies. The relative activity factor was defined as the activity ratio of HLM to an expressed UGT enzyme (Supersome) toward a probe substrate for this enzyme using Equation (3). The relative amount of wushanicaritin glucuronidation in HLM attributed to an expressed UGT enzyme was estimated by multiplying the glucuronidation activity (i.e., the intrinsic clearance) derived with this enzyme by the corresponding RAF. […] The contributions of individual UGT enzyme were calculated according to Equation (4). (3) RAF=CLint{probe,pHLM}/CLint{probe,Supersome} (4) Contribution of UGTs=CLint(wushanica ritin,UGTs)/CLint(wushanica ritin,pHLM)×RAF

The nature of data set [2]: Glucuronidation by pooled human liver microsomes (HLM), UDPGA-supplemented. In kind it is in vitro ADME. On the procedure:
as §1, §3

Data set [3] concerns the target T2, expressed human UGT1A1 (Homo sapiens, UniProt P22309).
T2 sequence (P22309 26-533): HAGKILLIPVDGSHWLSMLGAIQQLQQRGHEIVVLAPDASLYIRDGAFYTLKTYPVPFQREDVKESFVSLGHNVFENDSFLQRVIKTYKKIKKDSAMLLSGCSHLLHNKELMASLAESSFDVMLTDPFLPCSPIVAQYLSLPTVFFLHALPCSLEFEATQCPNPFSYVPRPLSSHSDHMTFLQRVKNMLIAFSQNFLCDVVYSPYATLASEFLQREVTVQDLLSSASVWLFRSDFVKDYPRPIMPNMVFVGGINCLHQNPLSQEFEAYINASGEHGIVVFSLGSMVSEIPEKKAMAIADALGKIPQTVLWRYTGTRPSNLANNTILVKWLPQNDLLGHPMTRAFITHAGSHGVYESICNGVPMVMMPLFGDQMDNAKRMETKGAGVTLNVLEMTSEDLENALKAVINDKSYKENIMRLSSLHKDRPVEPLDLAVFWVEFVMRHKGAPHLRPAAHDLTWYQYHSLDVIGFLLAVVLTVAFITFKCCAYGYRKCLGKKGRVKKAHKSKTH
The data set can be described thus: Glucuronidation by expressed UGT1A1. On the procedure:
as §1, §2, §3, §4

Data set [4] can be described thus: Glucuronidation by rabbit liver microsomes (RaLM). In kind it is in vitro ADME. Particulars: for Km: rabbit, liver microsomes, read-out: Km or S50. On the procedure:
as §1, §3
In general terms: Microsomes from liver hold many membrane-bound enzymes, among them those of drug oxidation.

The nature of data set [5]: Glucuronidation by human intestine microsomes (HIM). It counts as in vitro ADME. Particulars: for Km: human, intestine microsomes, read-out: Km or S50. On the procedure:
as §1, §3

Data set [6] can be described thus: Glucuronidation by dog liver microsomes (DLM). Particulars: for Km: dog, liver microsomes, read-out: Km or S50; for Ki: substrate inhibition constant. In kind it is in vitro ADME. On the procedure:
as §1, §3

The conditions of data set [7]: human, pH 7.4.
Procedure: Wushanicaritin was incubated with HLM, HIM and expressed UGTs enzymes to determine the rates of glucuronidation as published previously [12, 23, 31]. Briefly, the incubation mixture mainly contained 50 mM Tris-hydrochloric acid buffer (pH 7.4), 0.88 mM MgCl2, 22 µg/mL alamethicin, 4.4 mM saccharolactone and 3.5 mM UDPGA [32]. The reaction was terminated by adding ice-cold acetonitrile. The samples were vortexed and centrifuged at 13,800× g for 10 min. The supernatant was subjected to UPLC/Q-TOF-MS (Waters Corporation, Manchester, UK) analysis. […] Similarly, wushanicaritin was incubated with DLM, RLM, MkLM, RaLM and GpLM in the same way as for HLM. All experiments were performed in triplicate. Preliminary experiments were performed to ensure that the rates of glucuronidation were determined under linear conditions with respect to the incubation time and protein concentration.
Serial concentrations of wushanicaritin (0.156–20 µM) were incubated with HLM, HIM and expressed UGTs enzymes to determine wushanicaritin glucuronidation rates. […] Appropriate models were selected by visual inspection of the Eadie–Hofstee plot [34]. Model fitting and parameter estimation were performed by GraphPad Prism V5 software (GraphPad Software, Inc., San Diego, CA, USA).
V is the formation rate of the product. Vmax is the maximal velocity. Km is the Michaelis constant, and [S] is the substrate. […]
A short description of data set [8]: Glucuronidation by guinea pig liver microsomes (GpLM). The settings on record: for Km: guinea pig, liver microsomes, read-out: Km or S50. It counts as in vitro ADME. The method, then:
as §1, §3

Data set [9] is described as follows: Glucuronidation by monkey liver microsomes (MkLM). In kind it is in vitro ADME. Particulars: for Km: monkey, liver microsomes, read-out: Km or S50; for Ki: substrate inhibition constant. The method, then:
as §1, §3

Data set [10] in a line: Glucuronidation by rat liver microsomes (RLM). In kind it is in vitro ADME. The settings on record: for Km: rat, liver microsomes, read-out: Km or S50; for Ki: substrate inhibition constant. The method, then: as §1, §3
Details of data set [11]: method as in PMID 21968061. Particulars: DPPH radical scavenging (antioxidant activity); cited from earlier work. Background: Loss of DPPH colour is used to gauge radical scavenging.
Substrate in data set [12]: CC(C)c1cccc(C(C)C)c1O
As to the kind of experiment: not read. The settings on record: other: probe substrate glucuronidation; UGT1A9; pH 7.4.

Substrate in data set [13]: COc1ccc(-c2oc3c(CCC(C)(C)O)c(O)cc(O)c3c(=O)c2O)cc1
Procedure: Briefly, the incubation mixture mainly contained 50 mM Tris-hydrochloric acid buffer (pH 7.4), 0.88 mM MgCl2, 22 µg/mL alamethicin, 4.4 mM saccharolactone and 3.5 mM UDPGA [32]. The reaction was terminated by adding ice-cold acetonitrile. […] The supernatant was subjected to UPLC/Q-TOF-MS (Waters Corporation, Manchester, UK) analysis. […] All experiments were performed in triplicate. Preliminary experiments were performed to ensure that the rates of glucuronidation were determined under linear conditions with respect to the incubation time and protein concentration.
Appropriate models were selected by visual inspection of the Eadie–Hofstee plot [34]. Model fitting and parameter estimation were performed by GraphPad Prism V5 software (GraphPad Software, Inc., San Diego, CA, USA).
V is the formation rate of the product. Vmax is the maximal velocity. Km is the Michaelis constant, and [S] is the substrate. Ksi is the substrate inhibition constant. The intrinsic clearance (CLint) was derived by Vmax/Km for the Michaelis–Menten and substrate inhibition models [12]. (1) V=Vmax ×[S]/Km+[S] (2) V=Vmax ×[S]/Km + [S](1+[S]/Ksi)
The contribution of individual expressed UGT enzymes to wushanicaritin glucuronidation in HLM was evaluated by the relative activity factor (RAF) approach as described in previous studies [2, 12]. The relative activity factor was defined as the activity ratio of HLM to an expressed UGT enzyme (Supersome) toward a probe substrate for this enzyme using Equation (3). The relative amount of wushanicaritin glucuronidation in HLM attributed to an expressed UGT enzyme was estimated by multiplying the glucuronidation activity (i.e., the intrinsic clearance) derived with this enzyme by the corresponding RAF. […] The contributions of individual UGT enzyme were calculated according to Equation (4). (3) RAF=CLint{probe,pHLM}/CLint{probe,Supersome} (4) Contribution of UGTs=CLint(wushanica ritin,UGTs)/CLint(wushanica ritin,pHLM)×RAF
The data set can be described thus: not read. Particulars: UGT1A9, pH 7.4.

The mark [14] stands for this setting: probe substrate glucuronidation.
Where [15] appears, read: formation of G1 (3-O-glucuronide).
[16] abbreviates: formation of G2 (7-O-glucuronide).
[17] abbreviates: pH 7.4, formation of G1 (3-O-glucuronide).
[18] abbreviates: pH 7.4, formation of G2 (7-O-glucuronide).
Where [19] appears, read: other: formation of G1 (3-O-glucuronide).
The mark [20] stands for this setting: other: formation of G2 (7-O-glucuronide).

Values joined by “and” are separate entries in the source; they are usually repeats but may differ in a detail not shown here. Equal values may be shown once.

By Km is commonly meant the concentration of substrate that gives half-maximal velocity. As usually defined, the microsomal CLint is a measure of how fast metabolising enzymes remove a compound, apart from limits set by blood flow. By Vmax is commonly meant the rate approached at saturating substrate. Consider `Cc1cn([C@H]2C[C@H](N=[N+]=[N-])[C@@H](CO)O2)c(=O)[nH]c1=O` [AZT, zidovudine, reference compound], for which the Km is 1600 ± 121 µM in [1] and 4360 ± 341 µM in [2] (human, pooled liver microsomes, probe substrate glucuronidation, read-out: Km). Further, the microsomal CLint in data set [1] (expressed UGT2B7 (Supersome)) was determined as 0.26 ± 0.02 µL/min/mg; in data set [2] (human, pooled liver microsomes, probe substrate glucuronidation), 0.27 ± 0.02 µL/min/mg. In data set [2] (setting [14]), the Vmax is 1.18 ± 0.53 nmol/min/mg.
Turning to `C[C@]12CC[C@@H]3c4ccc(O)cc4CC[C@H]3[C@@H]1CC[C@@H]2O` [β-estradiol, reference compound], the Vmax in data set [2] (setting [14]) was determined as 0.19 ± 0.09 nmol/min/mg. Besides, the Km in data set [3] is 25.3 ± 4.28 µM.
The term IC50 denotes the concentration at which inhibition is half-maximal. Regarding `COc1ccc(-c2oc3c(CCC(C)(C)O)c(O)cc(O)c3c(=O)c2O)cc1` [wushanicaritin], the Vmax in data set [4] (setting [15]) is 0.11 ± 0.004 nmol/min/mg; in [4] (setting [16]) it was 0.56 ± 0.02 nmol/min/mg; in data set [5] (setting [15]), 0.74 nmol/min/mg and 0.74 ± 0.05 nmol/min/mg; in data set [5] (setting [16]), 1.34 nmol/min/mg and 1.34 ± 0.10 nmol/min/mg; in [6] (setting [15]), 0.19 ± 0.01 nmol/min/mg; in [6] (setting [16]), 0.32 ± 0.02 nmol/min/mg. Besides, the Vmax is 0.05 ± 0.002 nmol/min/mg in [8] (setting [15]); 1.43 ± 0.06 nmol/min/mg in data set [8] (setting [16]); 1.34 nmol/min/mg and 1.34 ± 0.08 nmol/min/mg in data set [2] (setting [15]); 0.35 nmol/min/mg and 0.35 ± 0.01 nmol/min/mg in [2] (setting [16]); 0.22 ± 0.02 nmol/min/mg in data set [9] (setting [15]); 0.21 ± 0.008 nmol/min/mg in [9] (setting [16]). For the same molecule, the figures for the Vmax in data set [10] (setting [15]) and in [10] (setting [16]) were 0.34 ± 0.01 nmol/min/mg and 0.37 ± 0.009 nmol/min/mg, respectively. Also, the Km came out at 2.22 ± 0.26 µM in data set [4] (setting [17]); 3.29 ± 0.39 µM in [4] (setting [18]); 4.24 ± 0.75 µM in [5] (setting [17]); 5.91 ± 1.1 µM in data set [5] (setting [18]); 1.11 ± 0.16 µM in [6] (setting [17]); 1.17 ± 0.13 µM in data set [6] (setting [18]). Further, the Km in [8] (setting [17]) worked out at 2.53 ± 0.3 µM; in data set [8] (setting [18]), 0.93 ± 0.06 µM; in data set [2] (human, pooled liver microsomes, pH 7.4, formation of G1 (3-O-glucuronide), read-out: Km or S50), 1.07 ± 0.13 µM; in [2] (human, pooled liver microsomes, pH 7.4, formation of G2 (7-O-glucuronide), read-out: Km or S50) it was 0.5 ± 0.08 µM; in data set [9] (setting [17]), 1.58 ± 0.25 µM; in data set [9] (setting [18]) it was 0.94 ± 0.08 µM. Further, the Km in data set [10] (setting [17]) was 0.66 ± 0.06 µM; in data set [10] (setting [18]), 0.45 ± 0.03 µM. Further, the Ki was 29.09 ± 6.58 µM in data set [6] (setting [15]); 44.14 ± 9.09 µM in data set [6] (setting [16]); 32.99 µM and 32.990 ± 6.717 µM in data set [2] (substrate inhibition constant, formation of G1 (3-O-glucuronide)); 11.57 ± 2.15 µM in data set [9] (setting [15]); 36.23 ± 5.13 µM in data set [9] (setting [16]); 17.150 ± 4.478 µM in [3] (substrate inhibition constant, formation of G1 (3-O-glucuronide), UGT1A1). The Ki in data set [10] (setting [15]) is 37.11 ± 5.82 µM; in data set [10] (setting [16]) it was 44.22 ± 5.42 µM. Besides, in [7] (dog, rat, monkey, rabbit, guinea pig), the “species difference in hepatic glucuronidation” value is recorded as “up to 60.0 fold”. In [7], the “variability of kinetic parameters, rat versus humans” value is listed as at most 2.5 fold. In [11], the IC50 was 35.3 µM.

B1: expressed human UGT1A9 (Homo sapiens) (protein)
chain: GKLLVVPMDGSHWFTMRSVVEKLILRGHEVVVVMPEVSWQLGRSLNCTVKTYSTSYTLEDLDREFKAFAHAQWKAQVRSIYSLLMGSYNDIFDLFFSNCRSLFKDKKLVEYLKESSFDAVFLDPFDNCGLIVAKYFSLPSVVFARGILCHYLEEGAQCPAPLSYVPRILLGFSDAMTFKERVRNHIMHLEEHLLCHRFFKNALEIASEILQTPVTEYDLYSHTSIWLLRTDFVLDYPKPVMPNMIFIGGINCHQGKPLPMEFEAYINASGEHGIVVFSLGSMVSEIPEKKAMAIADALGKIPQTVLWRYTGTRPSNLANNTILVKWLPQNDLLGHPMTRAFITHAGSHGVYESICNGVPMVMMPLFGDQMDNAKRMETKGAGVTLNVLEMTSEDLENALKAVINDKSYKENIMRLSSLHKDRPVEPLDLAVFWVEFVMRHKGAPHLRPAAHDLTWYQYHSLDVIGFLLAVVLTVAFITFKCCAYGYRKCLGKKGRVKKAHKSKTH
B1: the Km in data set [12] came out at 45.91 ± 5.91 µM. Moreover, in data set [13] (setting [19]), the K0.5 is 0.32 ± 0.03 µM, the Vmax is 8e-05 µmol/min/mg and the Vmax/Km worked out at 240 µL/min/mg. In addition, in data set [13] (setting [20]), the K0.5 is 0.39 ± 0.06 µM, the Vmax is 0.00011 µmol/min/mg and the Vmax/Km worked out at 270 µL/min/mg.
